The text below walks through data of patent US8021694B2, “Acidified chlorite disinfectant compositions with olefin stabilizers” (Ecolab USA Inc., priority 2001, dated 2011).

Type in all cases: physicochemical
Data set [1] is described as follows: Rate of color fading at 35° C. of mixed acidified chlorite product, UV/Vis spectroscopy at 425 nm. The conditions noted are these: for Initial Color Intensity Remaining, Time After Mixing 1 hour: 1 hour after mixing; for Initial Color Intensity Remaining, Time After Mixing 2 hour: 2 hour after mixing; for Initial Color Intensity Remaining, Time After Mixing 3 hour: 3 hour after mixing; for Initial Color Intensity Remaining, Time After Mixing 4 hour: 4 hour after mixing. The protocol:
(§1) The rate of color fading at 35° C. was quantified by UV/Vis spectroscopy at 425 nm.
as §1

A short description of data set [2]: Rate of chlorine dioxide generation in mixed acidified chlorite product, UV/Vis spectroscopy at 360 nm. The settings on record: olefin 0.0225M in mixed product, 1.32% lactic acid, 0.32% sodium chlorite, pH 2.75; for Chlorine Dioxide, Time After Mixing 1 hour: 1 hour after mixing; for Chlorine Dioxide, Time After Mixing 2 hour: 2 hour after mixing; for Chlorine Dioxide, Time After Mixing 3 hour: 3 hour after mixing; for Chlorine Dioxide, Time After Mixing 4 hour: 4 hour after mixing; for Chlorine Dioxide, Time After Mixing 5 hour: 5 hour after mixing. The procedure:
A series of two-part acidified chlorite products were prepared that when combined 1:1 produced compositions containing 1.32% lactic acid, 0.32% sodium chlorite, an olefin compound formulated at a 0.0225M, and sufficient quantities of sodium hydroxide to produce a mixed product pH of 2.75. The rate of chlorine dioxide generation was determined by UV/Vis spectroscopy at 360 nm (54.31 ppm/A.U. cm).

Data set [3] can be described thus: Rate of sodium chlorite consumption, standard iodometric titration. The settings on record: olefin compound at 1.4%. The source says:
The rate of sodium chlorite consumption was quantified using a standard iodometric titration method.

[4] abbreviates: olefin 0.045M in acid part (0.0225M mixed), FD&C Yellow #5, pH 2.75.
[5] abbreviates: component at 0.4%, mixed product pH 2.75.

For the compound `CCCCCCCC/C=C\CCCCCCCC(=O)NCCOC(=O)C(CC(=O)[O-])S(=O)(=O)[O-].[Na+].[Na+]` (centres unmarked) [Disodium oleamido MEA sulfosuccinate], in data set [1] (setting [4]), the “Initial Color Intensity Remaining, Time After Mixing 1 hour” value is reported as “** (>50% of Initial Color Intensity Remaining)”; the “Initial Color Intensity Remaining, Time After Mixing 2 hour” value is given as “** (>50% of Initial Color Intensity Remaining)”; the “Initial Color Intensity Remaining, Time After Mixing 3 hour” value is reported as “** (>50% of Initial Color Intensity Remaining)”; the “Initial Color Intensity Remaining, Time After Mixing 4 hour” value is given as “** (>50% of Initial Color Intensity Remaining)”. The “Initial Color Intensity Remaining, Time After Mixing ½ hour” value in data set [1] (setting [4]) was “** (>50% of Initial Color Intensity Remaining)”.
Regarding `CCCCCCCC/C=C\CCCCCCCC(=O)NCCC[N+](C)(C)CC(=O)[O-]` [Oleamidopropyl betaine], in data set [1] (setting [4]), the “Initial Color Intensity Remaining, Time After Mixing 1 hour” value is “** (>50% of Initial Color Intensity Remaining)”; the “Initial Color Intensity Remaining, Time After Mixing 2 hour” value was “** (>50% of Initial Color Intensity Remaining)”; the “Initial Color Intensity Remaining, Time After Mixing 3 hour” value is given as “** (>50% of Initial Color Intensity Remaining)”; the “Initial Color Intensity Remaining, Time After Mixing 4 hour” value is recorded as “** (>50% of Initial Color Intensity Remaining)”. In data set [1] (setting [4]), the “Initial Color Intensity Remaining, Time After Mixing ½ hour” value is recorded as “** (>50% of Initial Color Intensity Remaining)”.
Regarding `CCCCCCCC/C=C\CCCCCCCC(=O)N(C)CCS(=O)(=O)[O-].[Na+]` [Sodium N-methyl oleoyl taurate, sodium N-methyl oleoyl taurate], in data set [2], the “Chlorine Dioxide, Time After Mixing 1 hour” value is listed as 4 ppm; the “Chlorine Dioxide, Time After Mixing 2 hour” value is 5 ppm; the “Chlorine Dioxide, Time After Mixing 3 hour” value amounted to 5 ppm; the “Chlorine Dioxide, Time After Mixing 4 hour” value came out at 6 ppm. Moreover, the “Chlorine Dioxide, Time After Mixing 5 hour” value in data set [2] is listed as 7 ppm. In addition, in data set [1] (setting [5]), the “Initial Color Intensity Remaining, Time After Mixing 1 hour” value is recorded as “** (>50% of Initial Color Intensity Remaining)”; the “Initial Color Intensity Remaining, Time After Mixing 2 hour” value is reported as “** (>50% of Initial Color Intensity Remaining)”; the “Initial Color Intensity Remaining, Time After Mixing 3 hour” value is given as “** (>50% of Initial Color Intensity Remaining)”; the “Initial Color Intensity Remaining, Time After Mixing ½ hour” value is “** (>50% of Initial Color Intensity Remaining)”. In data set [1] (setting [4]), the “Initial Color Intensity Remaining, Time After Mixing 1 hour” value was “** (>50% of Initial Color Intensity Remaining)”; the “Initial Color Intensity Remaining, Time After Mixing 2 hour” value is recorded as “** (>50% of Initial Color Intensity Remaining)”; the “Initial Color Intensity Remaining, Time After Mixing 3 hour” value was “** (>50% of Initial Color Intensity Remaining)”; the “Initial Color Intensity Remaining, Time After Mixing 4 hour” value is recorded as “** (>50% of Initial Color Intensity Remaining)”. Further, in data set [1] (setting [4]), the “Initial Color Intensity Remaining, Time After Mixing ½ hour” value was “** (>50% of Initial Color Intensity Remaining)”. Further, in data set [1] (component at 0.4%, in words), the “Extension of colorant intensity” value is given as “extended the colorant intensity longer”. In addition, the “Initial NaClO2 Level remaining, Time After Mixing 1 hour” value in data set [3] (1 hour after mixing, pH 2.75 when mixed 1:1) is recorded as “** (>50% Initial NaClO2 Level)”. Also, in data set [3] (2 hour after mixing, pH 2.75 when mixed 1:1), the “Initial NaClO2 Level remaining, Time After Mixing 2 hour” value is on record as “** (>50% Initial NaClO2 Level)”. In addition, in data set [3] (3 hour after mixing, pH 2.75 when mixed 1:1), the “Initial NaClO2 Level remaining, Time After Mixing 3 hour” value is “** (>50% Initial NaClO2 Level)”. In addition, in data set [3] (4 hour after mixing, pH 2.75 when mixed 1:1), the “Initial NaClO2 Level remaining, Time After Mixing 4 hour” value is given as “** (>50% Initial NaClO2 Level)”. In data set [3] (5 hour after mixing, pH 2.75 when mixed 1:1), the “Initial NaClO2 Level remaining, Time After Mixing 5 hour” value is “** (>50% Initial NaClO2 Level)”. In addition, the “Rate of sodium chlorite consumption” value in data set [3] (equal weight-base comparison, in words) is given as “stronger effect than alpha olefin sulfonate”.
Turning to `CCCCCCCC/C=C\CCCCCCCC[N+](C)(CCO)CCO.[Cl-]` [oleylmethylbis(hydroxyethyl)ammonium chloride], in data set [1] (setting [4]), the “Initial Color Intensity Remaining, Time After Mixing 1 hour” value is reported as “** (>50% of Initial Color Intensity Remaining)”; the “Initial Color Intensity Remaining, Time After Mixing 2 hour” value is listed as “** (>50% of Initial Color Intensity Remaining)”; the “Initial Color Intensity Remaining, Time After Mixing 3 hour” value was “** (>50% of Initial Color Intensity Remaining)”; the “Initial Color Intensity Remaining, Time After Mixing 4 hour” value is on record as “** (>50% of Initial Color Intensity Remaining)”. Also, the “Initial Color Intensity Remaining, Time After Mixing ½ hour” value in data set [1] (setting [4]) was “** (>50% of Initial Color Intensity Remaining)”.
Consider Oleth-10, for which, in data set [2], the “Chlorine Dioxide, Time After Mixing 1 hour” value was 10 ppm; the “Chlorine Dioxide, Time After Mixing 2 hour” value came to 16 ppm; the “Chlorine Dioxide, Time After Mixing 3 hour” value is listed as 21 ppm; the “Chlorine Dioxide, Time After Mixing 4 hour” value is 25 ppm. Besides, the “Chlorine Dioxide, Time After Mixing 5 hour” value in data set [2] was found to be 28 ppm. In data set [1] (setting [4]), the “Initial Color Intensity Remaining, Time After Mixing 1 hour” value was “** (>50% of Initial Color Intensity Remaining)”; the “Initial Color Intensity Remaining, Time After Mixing 2 hour” value is listed as “** (>50% of Initial Color Intensity Remaining)”; the “Initial Color Intensity Remaining, Time After Mixing 3 hour” value is given as “** (>50% of Initial Color Intensity Remaining)”; the “Initial Color Intensity Remaining, Time After Mixing 4 hour” value is “** (>50% of Initial Color Intensity Remaining)”. In addition, the “Initial Color Intensity Remaining, Time After Mixing ½ hour” value in data set [1] (setting [4]) is recorded as “** (>50% of Initial Color Intensity Remaining)”.
Consider Oleth-10 phosphate, for which, in data set [2], the “Chlorine Dioxide, Time After Mixing 1 hour” value worked out at 7 ppm; the “Chlorine Dioxide, Time After Mixing 2 hour” value stood at 14 ppm; the “Chlorine Dioxide, Time After Mixing 3 hour” value is listed as 17 ppm; the “Chlorine Dioxide, Time After Mixing 4 hour” value stood at 21 ppm. The “Chlorine Dioxide, Time After Mixing 5 hour” value in data set [2] was 25 ppm. Besides, in data set [1] (setting [4]), the “Initial Color Intensity Remaining, Time After Mixing 1 hour” value is “** (>50% of Initial Color Intensity Remaining)”; the “Initial Color Intensity Remaining, Time After Mixing 2 hour” value is recorded as “** (>50% of Initial Color Intensity Remaining)”; the “Initial Color Intensity Remaining, Time After Mixing 3 hour” value is given as “** (>50% of Initial Color Intensity Remaining)”; the “Initial Color Intensity Remaining, Time After Mixing 4 hour” value is recorded as “** (>50% of Initial Color Intensity Remaining)”. Besides, the “Initial Color Intensity Remaining, Time After Mixing ½ hour” value in data set [1] (setting [4]) is “** (>50% of Initial Color Intensity Remaining)”.
